ChEMBL document CHEMBL4673231, “Novel isoniazid embedded triazole derivatives: Synthesis, antitubercular and antimicrobial activity evaluation” (Bioorg Med Chem Lett, 2020)
Values after ≈ are worked out from the molar mass of the structure shown. Active and inactive are the calls of the source. The calls are words filed in the database; no cut-off is given here.

Legend:
Aspergillus niger = assay: Antifungal activity against Aspergillus niger assessed as diameter of inhibition zone at 1 mg/ml incubated for 24 hrs by agar well diffusion assay; type: functional; settings: for zone of inhibition at 1000 µg/mL: read-out: DIZ
[1] = test system: Salmonella enterica subsp. enterica serovar Abony; assay: Antibacterial activity against Salmonella enterica subsp. enterica serovar Abony assessed as diameter of inhibition zone at 1 mg/ml incubated for 24 hrs by agar well diffusion assay; type: functional; settings: for zone of inhibition at 1000 µg/mL: read-out: DIZ
[2] = test system: Mycobacterium tuberculosis; assay: Antimycobacterial activity against Mycobacterium tuberculosis H37Rv assessed as reduction in microbial growth incubated for 7 days by alamar blue assay; type: functional; settings: 168 h, time 7 day
Klebsiella aerogenes [3] = assay: Antibacterial activity against Enterobacter aerogenes assessed as diameter of inhibition zone at 1 mg/ml incubated for 24 hrs by agar well diffusion assay; type: functional; settings: for zone of inhibition at 1000 µg/mL: read-out: DIZ
Pseudomonas aeruginosa = assay: Antibacterial activity against Pseudomonas aeruginosa assessed as diameter of inhibition zone at 1 mg/ml incubated for 24 hrs by agar well diffusion assay; type: functional; settings: for zone of inhibition at 1000 µg/mL: read-out: DIZ
Saccharomyces cerevisiae = assay: Antifungal activity against Saccharomyces cerevisiae assessed as diameter of inhibition zone at 1 mg/ml incubated for 24 hrs by agar well diffusion assay; type: functional; settings: for zone of inhibition at 1000 µg/mL: read-out: DIZ
Salmonella typhi [4] = assay: Antibacterial activity against Salmonella typhi assessed as diameter of inhibition zone at 1 mg/ml incubated for 24 hrs by agar well diffusion assay; type: functional, Salmonella enterica subsp. enterica serovar Typhi; settings: for zone of inhibition at 1000 µg/mL: Salmonella enterica, read-out: DIZ; for diameter of the inhibition zone (DIZ): Salmonella enterica subsp. enterica serovar Typhi
Staphylococcus aureus [5] = assay: Antibacterial activity against Staphylococcus aureus assessed as diameter of inhibition zone at 1 mg/ml incubated for 24 hrs by agar well diffusion assay; type: functional; settings: for zone of inhibition at 1000 µg/mL: read-out: DIZ
Bacillus cereus = assay: Antibacterial activity against Bacillus cereus assessed as diameter of inhibition zone at 1 mg/ml incubated for 24 hrs by agar well diffusion assay; type: functional; settings: for zone of inhibition at 1000 µg/mL: read-out: DIZ
[6] = Cytotoxicity against mouse RAW264.7 cells assessed as reduction in cell viability at 25 ug/ml incubated for 48 hrs by MTT assay; type: cell-based; settings: at 25 µg/mL, read-out: INH
Bacillus subtilis = assay: Antibacterial activity against Bacillus subtilis assessed as diameter of inhibition zone at 1 mg/ml incubated for 24 hrs by agar well diffusion assay; type: functional; settings: for zone of inhibition at 1000 µg/mL: read-out: DIZ
Shigella boydii = assay: Antibacterial activity against Shigella boydii assessed as diameter of inhibition zone at 1 mg/ml incubated for 24 hrs by agar well diffusion assay; type: functional; settings: for zone of inhibition at 1000 µg/mL: read-out: DIZ
Escherichia coli = assay: Antibacterial activity against Escherichia coli assessed as diameter of inhibition zone at 1 mg/ml incubated for 24 hrs by agar well diffusion assay; type: functional; settings: for zone of inhibition at 1000 µg/mL: read-out: DIZ
Klebsiella aerogenes [7] = assay: Antibacterial activity against Enterobacter aerogenes ATCC 13048 by CLSI method; type: functional
Salmonella typhi [8] = assay: Antibacterial activity against Salmonella typhi ATCC 9207 by CLSI method; type: functional, Salmonella enterica subsp. enterica serovar Typhi; settings: Salmonella enterica
Staphylococcus aureus [9] = assay: Antibacterial activity against Staphylococcus aureus ATCC 6538 by CLSI method; type: functional

SMILES	diameter of the inhibition zone (DIZ) (Aspergillus niger)	diameter of the inhibition zone (DIZ) [1]	MIC [2]	zone of inhibition at 1000 µg/mL (Klebsiella aerogenes [3])	zone of inhibition at 1000 µg/mL (Salmonella typhi [4])	diameter of the inhibition zone (DIZ) (Staphylococcus aureus [5])	diameter of the inhibition zone (DIZ) (Bacillus cereus)	cytotoxicity at 48 h, 25 ug/ml [6]	diameter of the inhibition zone (DIZ) (Bacillus subtilis)	diameter of the inhibition zone (DIZ) (Shigella boydii)	diameter of the inhibition zone (DIZ) (Escherichia coli)	zone of inhibition at 1000 µg/mL (Pseudomonas aeruginosa)	zone of inhibition at 1000 µg/mL (Escherichia coli)	zone of inhibition at 1000 µg/mL (Aspergillus niger)	diameter of the inhibition zone (DIZ) (Klebsiella aerogenes [3])	diameter of the inhibition zone (DIZ) (Saccharomyces cerevisiae)	other results
O=C(N/N=C/c1cc([N+](=O)[O-])ccc1OCc1cn(-c2ccc(Br)cc2)nn1)c1ccncc1	inactive	inactive	12.5 µg/mL	12 mm	10 mm	inactive	inactive	19%	inactive	inactive	inactive	–	–	–	–	–	diameter of the inhibition zone (DIZ) (Pseudomonas aeruginosa): inactive; zone of inhibition at 1000 µg/mL (Saccharomyces cerevisiae): 12 mm
O=C(N/N=C/c1cc([N+](=O)[O-])ccc1OCc1cn(-c2ccccc2)nn1)c1ccncc1	inactive	inactive	0.78 µg/mL	14 mm	–	inactive	inactive	25.7%	inactive	inactive	–	13 mm	12 mm	–	–	–	zone of inhibition at 1000 µg/mL (Saccharomyces cerevisiae): 10 mm; diameter of the inhibition zone (DIZ) (Salmonella typhi [4]): inactive
O=C(N/N=C/c1cc([N+](=O)[O-])ccc1OCc1cn(-c2ccc(Cl)cc2)nn1)c1ccncc1	–	inactive	25 µg/mL	–	13 mm	inactive	inactive	–	inactive	inactive	inactive	15 mm	–	16 mm	inactive	–	zone of inhibition at 1000 µg/mL (Saccharomyces cerevisiae): 10 mm
CO[C@H]1/C=C/O[C@@]2(C)Oc3c(C)c(O)c4c(O)c(c(/C=N/N5CCN(C)CC5)c(O)c4c3C2=O)NC(=O)/C(C)=C\C=C\[C@H](C)[C@H](O)[C@@H](C)[C@@H](O)[C@@H](C)[C@H](OC(C)=O)[C@@H]1C [RIFAMPIN]	–	–	0.2 µg/mL	–	–	–	–	–	–	–	–	–	–	–	–	–	–
COc1ccc(-n2cc(COc3ccc([N+](=O)[O-])cc3/C=N/NC(=O)c3ccncc3)nn2)cc1	–	–	> 25 µg/mL	14 mm	12 mm	–	–	–	–	–	–	12 mm	12 mm	11 mm	–	–	MIC (Klebsiella aerogenes [7]): 150 µg/mL (≈ 317 µM); zone of inhibition at 1000 µg/mL [1]: 13 mm; MIC (Salmonella typhi [8]): 340 µg/mL (≈ 718 µM); zone of inhibition at 1000 µg/mL (Staphylococcus aureus [5]): 10 mm; zone of inhibition at 1000 µg/mL (Bacillus cereus): 12 mm; zone of inhibition at 1000 µg/mL (Bacillus subtilis): 6 mm; MIC (Staphylococcus aureus [9]): 180 µg/mL (≈ 380 µM); zone of inhibition at 1000 µg/mL (Shigella boydii): 14 mm
CCc1ccc(-n2cc(COc3ccc([N+](=O)[O-])cc3/C=N/NC(=O)c3ccncc3)nn2)cc1	–	inactive	0.78 µg/mL	–	–	inactive	inactive	26.9%	inactive	inactive	–	10 mm	10 mm	10 mm	inactive	inactive	diameter of the inhibition zone (DIZ) (Salmonella typhi [4]): inactive
Cc1cc(C)c(-n2cc(COc3ccc([N+](=O)[O-])cc3/C=N/NC(=O)c3ccncc3)nn2)c(C)c1	inactive	inactive	0.78 µg/mL	–	10 mm	inactive	inactive	27.7%	inactive	inactive	inactive	–	–	–	inactive	inactive	diameter of the inhibition zone (DIZ) (Pseudomonas aeruginosa): inactive
CN(C)[C@@H]1C(O)=C(C(N)=O)C(=O)[C@@]2(O)C(O)=C3C(=O)c4c(O)cccc4[C@@](C)(O)[C@H]3C[C@@H]12 [TETRACYCLINE]	–	–	–	24 mm	28 mm	–	–	–	–	–	–	28 mm	29 mm	–	–	–	MIC (Klebsiella aerogenes [7]): 15 µg/mL (≈ 33.8 µM); zone of inhibition at 1000 µg/mL [1]: 27 mm; MIC (Salmonella typhi [8]): 20 µg/mL (≈ 45 µM); zone of inhibition at 1000 µg/mL (Staphylococcus aureus [5]): 22 mm; zone of inhibition at 1000 µg/mL (Bacillus cereus): 32 mm; zone of inhibition at 1000 µg/mL (Bacillus subtilis): 18 mm; MIC (Staphylococcus aureus [9]): 20 µg/mL (≈ 45 µM); zone of inhibition at 1000 µg/mL (Shigella boydii): 29 mm
CC[C@@H](CO)NCCN[C@@H](CC)CO [ETHAMBUTOL]	–	–	3.12 µg/mL	–	–	–	–	–	–	–	–	–	–	–	–	–	–
OC(Cn1cncn1)(Cn1cncn1)c1ccc(F)cc1F [FLUCONAZOLE]	–	–	–	–	–	–	–	–	–	–	–	–	–	30 mm	–	–	zone of inhibition at 1000 µg/mL (Saccharomyces cerevisiae): 30 mm
O=C(N/N=C/c1cc([N+](=O)[O-])ccc1OCc1cn(-c2cccc([N+](=O)[O-])c2)nn1)c1ccncc1	inactive	inactive	0.78 µg/mL	–	–	inactive	inactive	22.7%	inactive	inactive	inactive	–	–	–	inactive	inactive	diameter of the inhibition zone (DIZ) (Pseudomonas aeruginosa): inactive; diameter of the inhibition zone (DIZ) (Salmonella typhi [4]): inactive
NNC(=O)c1ccncc1 [ISONIAZID]	–	–	0.1 µg/mL	–	–	–	–	–	–	–	–	–	–	–	–	–	–
O=C(O)c1cn(C2CC2)c2cc(N3CCNCC3)c(F)cc2c1=O [CIPROFLOXACIN]	–	–	1.56 µg/mL	–	–	–	–	–	–	–	–	–	–	–	–	–	–
Cc1ccc(-n2cc(COc3ccc([N+](=O)[O-])cc3/C=N/NC(=O)c3ccncc3)nn2)c(C)c1	inactive	inactive	3.12 µg/mL	–	11 mm	inactive	inactive	17.6%	inactive	inactive	inactive	–	–	–	inactive	inactive	diameter of the inhibition zone (DIZ) (Pseudomonas aeruginosa): inactive
COc1cccc(-n2cc(COc3ccc([N+](=O)[O-])cc3/C=N/NC(=O)c3ccncc3)nn2)c1	–	–	0.78 µg/mL	6 mm	12 mm	inactive	inactive	23.9%	–	inactive	–	10 mm	9 mm	13 mm	–	inactive	zone of inhibition at 1000 µg/mL [1]: 8 mm; zone of inhibition at 1000 µg/mL (Bacillus subtilis): 12 mm
Cc1ccc([N+](=O)[O-])cc1-n1cc(COc2ccc([N+](=O)[O-])cc2/C=N/NC(=O)c2ccncc2)nn1	–	inactive	0.78 µg/mL	–	–	inactive	inactive	23.9%	inactive	inactive	–	9 mm	12 mm	13 mm	inactive	inactive	diameter of the inhibition zone (DIZ) (Salmonella typhi [4]): inactive
O=C(N/N=C/c1cc([N+](=O)[O-])ccc1OCc1cn(-c2ccccc2F)nn1)c1ccncc1	inactive	inactive	12.5 µg/mL	10 mm	10 mm	inactive	inactive	19.3%	–	inactive	inactive	13 mm	–	–	–	inactive	zone of inhibition at 1000 µg/mL (Bacillus subtilis): 11 mm
Cc1cccc(-n2cc(COc3ccc([N+](=O)[O-])cc3/C=N/NC(=O)c3ccncc3)nn2)c1	–	inactive	12.5 µg/mL	8 mm	10 mm	–	–	23.2%	–	inactive	inactive	12 mm	–	8 mm	–	inactive	zone of inhibition at 1000 µg/mL (Staphylococcus aureus [5]): 13 mm; zone of inhibition at 1000 µg/mL (Bacillus cereus): 13 mm; zone of inhibition at 1000 µg/mL (Bacillus subtilis): 10 mm
